Laboratory results: US20250280826A1, “PLANT GROWTH PROMOTER” (KAO CORPORATION, priority 2022, published 2025)

Assay type: physicochemical
Settings: in 100 μL of isobutyl alcohol
Description: The amount of BHT dissolved in 100 μL of isobutyl alcohol was changed. […] For other solvents, solubility was similarly confirmed at a ratio of BHT:solvent=1:4. […] The reagents used were those manufactured by FUJIFILM Wako Pure Chemical Corporation.

dibutylhydroxytoluene [BHT]
amount of BHT uniformly dissolved: up to 25 mg
